In ChEMBL document CHEMBL1914389, “Steroidal C-21 mercapto derivatives as dissociated steroids: discovery of an inhaled dissociated steroid” (Bioorg Med Chem Lett, 2011):

Legend:
[1] = system: Rattus norvegicus; test: Toxicity in ip dosed Brown-Norway rat assessed as decrease in adrenal weight administered for 3 days; assay type: organism-based; conditions: in vivo, 72 h
[2] = system: Rattus norvegicus; test: Antiinflammatory activity in ovalbumin-challenged Brown-Norway rat assessed as improvement in lung function administered via nose as dry powder inhalation once a day for 3 days; assay type: functional; conditions: inhaled or nasal, 72 h
[3] = biological target: T1, Glucocorticoid receptor (Homo sapiens) (UniProt P04150); test: Transrepression activity at glucocorticoid receptor in human H292 cells assessed as inhibition of TNF-stimulated IL-6 cytokine synthesis at 1 uM relative to control; assay type: cell-based
T1 sequence (whole entry): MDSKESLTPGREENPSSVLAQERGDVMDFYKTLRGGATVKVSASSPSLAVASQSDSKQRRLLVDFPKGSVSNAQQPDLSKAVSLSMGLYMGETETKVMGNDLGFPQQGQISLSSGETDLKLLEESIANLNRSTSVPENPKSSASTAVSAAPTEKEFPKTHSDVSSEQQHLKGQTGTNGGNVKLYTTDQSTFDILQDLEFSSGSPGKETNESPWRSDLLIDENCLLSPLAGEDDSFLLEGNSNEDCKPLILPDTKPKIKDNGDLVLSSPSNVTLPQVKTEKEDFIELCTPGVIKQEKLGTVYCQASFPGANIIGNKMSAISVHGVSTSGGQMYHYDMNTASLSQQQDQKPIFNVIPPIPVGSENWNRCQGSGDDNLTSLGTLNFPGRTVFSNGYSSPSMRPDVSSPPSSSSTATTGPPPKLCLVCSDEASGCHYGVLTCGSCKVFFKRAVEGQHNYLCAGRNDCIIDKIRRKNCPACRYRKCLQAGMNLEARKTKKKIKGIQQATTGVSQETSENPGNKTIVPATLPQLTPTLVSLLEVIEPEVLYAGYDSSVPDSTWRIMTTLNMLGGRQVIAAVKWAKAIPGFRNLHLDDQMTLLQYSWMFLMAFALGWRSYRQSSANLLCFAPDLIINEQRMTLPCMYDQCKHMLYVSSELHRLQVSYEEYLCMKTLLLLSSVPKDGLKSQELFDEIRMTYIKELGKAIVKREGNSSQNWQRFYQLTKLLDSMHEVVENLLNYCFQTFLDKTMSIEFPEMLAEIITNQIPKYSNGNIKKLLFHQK

[4] = system: Rattus norvegicus; test: Antiinflammatory activity in intratracheal insufflated allergen challenged Brown-Norway rat assessed as inhibition of inflammatory cell influx administered as single dose; assay type: functional; conditions: inhaled or nasal
[5] = biological target: T1, Glucocorticoid receptor (Homo sapiens); test: Transactivation activity at glucocorticoid receptor in human HepG2 cells assessed as induction of tyrosine amino transferase at 1 uM relative to control; assay type: cell-based
[6] = system: Rattus norvegicus; test: Toxicity in ip dosed Brown-Norway rat assessed as decrease in thymus weight administered for 3 days; assay type: organism-based; conditions: in vivo, 72 h
[7] = system: Rattus norvegicus; test: Toxicity in ip dosed Brown-Norway rat assessed as decrease in body weight administered for 3 days; assay type: organism-based; conditions: in vivo, 72 h
[8] = biological target: T2, Glucocorticoid receptor (Rattus norvegicus) (UniProt P06536); test: Transactivation activity at glucocorticoid receptor in rat H4II-E cells assessed as induction of tyrosine amino transferase at 1 uM relative to control; assay type: cell-based
T2 sequence (whole entry): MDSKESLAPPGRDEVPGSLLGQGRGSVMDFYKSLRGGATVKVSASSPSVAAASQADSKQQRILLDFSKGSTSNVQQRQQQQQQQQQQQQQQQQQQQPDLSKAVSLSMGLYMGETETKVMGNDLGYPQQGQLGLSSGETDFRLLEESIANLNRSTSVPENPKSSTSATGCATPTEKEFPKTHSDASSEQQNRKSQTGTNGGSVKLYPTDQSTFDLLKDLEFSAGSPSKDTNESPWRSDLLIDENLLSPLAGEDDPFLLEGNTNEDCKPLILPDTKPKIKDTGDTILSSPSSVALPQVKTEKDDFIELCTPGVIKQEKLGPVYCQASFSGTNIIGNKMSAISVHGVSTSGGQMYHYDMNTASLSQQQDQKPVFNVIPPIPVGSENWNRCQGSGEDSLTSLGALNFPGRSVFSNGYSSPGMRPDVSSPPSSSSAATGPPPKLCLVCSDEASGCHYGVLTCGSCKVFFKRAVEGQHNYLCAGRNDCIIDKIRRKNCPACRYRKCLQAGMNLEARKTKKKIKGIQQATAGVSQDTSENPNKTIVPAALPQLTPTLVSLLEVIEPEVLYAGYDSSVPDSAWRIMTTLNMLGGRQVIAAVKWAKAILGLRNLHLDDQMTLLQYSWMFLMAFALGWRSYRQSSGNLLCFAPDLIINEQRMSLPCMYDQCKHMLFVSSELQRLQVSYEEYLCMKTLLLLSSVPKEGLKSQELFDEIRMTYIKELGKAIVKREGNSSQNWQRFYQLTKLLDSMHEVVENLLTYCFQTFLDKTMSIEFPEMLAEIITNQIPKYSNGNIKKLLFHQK

[9] = system: Rattus norvegicus; test: Induction of thymolysis in ovalbumin-challenged Brown-Norway rat administered via nose inhalation; assay type: organism-based; conditions: in vivo, inhaled_or_intranasal

- Emax [3]: 99%
- Emax [5]: 113%
- Emax [8]: 110%
- ED20 [9]: 0.023 mg/kg
Compound: CCC(=O)O[C@]1(C(=O)SCF)[C@H](C)C[C@H]2[C@@H]3C[C@H](F)C4=CC(=O)C=C[C@]4(C)[C@@]3(F)[C@@H](O)C[C@@]21C [FLUTICASONE PROPIONATE]
- ED50 [1]: 0.52 mg/kg
- ED70 [2]: 0.021 mg/kg
- ED50 [4]: 0.14 mg/kg
- ED50 [6]: 0.14 mg/kg
- ED50 [7]: 0.34 mg/kg
